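Cultured in 96-well plates, cells were exposed to test compound for 48 hours across five concentrations. GI50: concentration for 50% inhibition of growth.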 Calls of active or inactive are those of the source. Rule as the data show it: active = GI50 up to about 1.1 µM and inactive = higher. Where a SMILES comes first, the peptide text is derived from it. Square brackets hold non-standard residues; d marks the D form. Peptide text beside a SMILES is read from it. The star is where a group is joined. * marks the point of attachment. Tyr(3-Br) = N[C@@H](Cc1ccc(O)c(Br)c1)C(=O)O; Boc = CC(C)(C)OC(=O)*
Assays:
Experiment in all cases: growth of human tumour cells (NCI), 48 h
[1] = tested on: PC-3
[2] = tested on: SW-620
[3] = tested on: A549
[4] = tested on: SN12C
[5] = tested on: SNB-19
[6] = tested on: OVCAR-4
[7] = tested on: MDA-MB-435
[8] = tested on: IGROV-1
[9] = tested on: U-251
[10] = tested on: SK-MEL-28
[11] = tested on: CCRF-CEM
[12] = tested on: COLO 205
[13] = tested on: TK-10
[14] = tested on: HOP-62
[15] = tested on: LOX IMVI
[16] = tested on: EKVX
[17] = tested on: SK-OV-3
[18] = tested on: MOLT-4
[19] = tested on: NCI-H522

Row | Compound | GI50 [1] | GI50 [2] | GI50 [3] | GI50 [4] | GI50 [5] | GI50 [6] | GI50 [7] | GI50 [8] | GI50 [9] | GI50 [10] | GI50 [11] | GI50 [12] | GI50 [13] | GI50 [14] | GI50 [15] | GI50 [16] | GI50 [17] | GI50 [18] | GI50 [19]
1 | CC1=CCC[C@H]2[C@](C)(CC3=CC(=O)C(SCC(C)C)=CC3=O)[C@@H](C)CC[C@]12C | 15 µM (inactive) | 17.3 µM (inactive) | 12.5 µM (inactive) | 24.9 µM (inactive) | 18.3 µM (inactive) | 15.3 µM (inactive) | 15.7 µM (inactive) | 11 µM (inactive) | 14.3 µM (inactive) | 15.8 µM (inactive) | 1.79 µM (inactive) | 13.2 µM (inactive) | 16.7 µM (inactive) | 14.6 µM (inactive) | 7.41 µM (inactive) | 16.7 µM (inactive) | 19.5 µM (inactive) | 1.53 µM (inactive) | –
2 | CC/C(C)=C1\OC(=O)C(C)C(O)C(Cc2cccnc2)NC(=O)C(NC(=O)c2ncccc2O)C(C)OC1=O (stereo unspecified) | 50 µM (inactive) | > 100 µM (inactive) | 74.3 µM (inactive) | 94 µM (inactive) | > 100 µM (inactive) | > 100 µM (inactive) | > 100 µM (inactive) | 27.1 µM (inactive) | > 100 µM (inactive) | > 100 µM (inactive) | – | > 100 µM (inactive) | > 100 µM (inactive) | 51.1 µM (inactive) | > 100 µM (inactive) | 31.3 µM (inactive) | 71.9 µM (inactive) | 53.6 µM (inactive) | –
3 | c1ccc2c(c1)ccc1nc(-c3ccc4c(c3)OCO4)c3c(c12)CCC3 | 56.4 µM (inactive) | > 100 µM (inactive) | 95.9 µM (inactive) | > 100 µM (inactive) | > 100 µM (inactive) | 57.1 µM (inactive) | 59.6 µM (inactive) | – | > 100 µM (inactive) | > 100 µM (inactive) | 74.5 µM (inactive) | 56.9 µM (inactive) | – | > 100 µM (inactive) | – | 89.3 µM (inactive) | > 100 µM (inactive) | 42.8 µM (inactive) | –
4 | COc1ccccc1[S+]([O-])Nc1ccccc1 (stereo unspecified) | – | 30.7 µM (inactive) | 74.6 µM (inactive) | > 100 µM (inactive) | > 100 µM (inactive) | > 100 µM (inactive) | 31 µM (inactive) | 37.2 µM (inactive) | 41.6 µM (inactive) | > 100 µM (inactive) | 54.5 µM (inactive) | > 100 µM (inactive) | > 100 µM (inactive) | > 100 µM (inactive) | 71.9 µM (inactive) | > 100 µM (inactive) | – | 32.2 µM (inactive) | 38.2 µM (inactive)
5 | Sc1nnc(-c2ccccc2Nc2ccccc2-c2nnc(S)n2-c2ccccc2)n1-c1ccccc1 | 60.3 µM (inactive) | 26.9 µM (inactive) | – | 26.5 µM (inactive) | 46.9 µM (inactive) | 40.4 µM (inactive) | 22.9 µM (inactive) | 16.4 µM (inactive) | 30.1 µM (inactive) | 19.5 µM (inactive) | 32.5 µM (inactive) | 34.8 µM (inactive) | 52.8 µM (inactive) | 58.5 µM (inactive) | 42.5 µM (inactive) | 32.4 µM (inactive) | – | 27.2 µM (inactive) | 26.7 µM (inactive)
6 | c1ccc(-c2nc3ccccc3n3nnnc23)cc1 | > 100 µM (inactive) | > 100 µM (inactive) | > 100 µM (inactive) | > 100 µM (inactive) | 75.7 µM (inactive) | > 100 µM (inactive) | > 100 µM (inactive) | > 100 µM (inactive) | > 100 µM (inactive) | > 100 µM (inactive) | > 100 µM (inactive) | > 100 µM (inactive) | > 100 µM (inactive) | 63.5 µM (inactive) | > 100 µM (inactive) | 11.5 µM (inactive) | > 100 µM (inactive) | > 100 µM (inactive) | –
7 | O=C(C[C@@H]1CCCN2CCCC[C@H]12)N1c2ccccc2Sc2ccc(Cl)cc21 | 13.2 µM (inactive) | 13.9 µM (inactive) | 16.6 µM (inactive) | 16.7 µM (inactive) | 16.1 µM (inactive) | – | 14.5 µM (inactive) | 12.6 µM (inactive) | 12.1 µM (inactive) | 13.2 µM (inactive) | 15 µM (inactive) | 11.9 µM (inactive) | 20 µM (inactive) | 13 µM (inactive) | 13.7 µM (inactive) | 19.1 µM (inactive) | – | 11.8 µM (inactive) | 13.5 µM (inactive)
8 | COc1cc(Br)cc2c1O[C@H]1C(=O)CC3CC21CCN3C (stereo partly specified) | 64 µM (inactive) | 30.5 µM (inactive) | 94.4 µM (inactive) | – | > 100 µM (inactive) | – | 52.2 µM (inactive) | 30.8 µM (inactive) | – | > 100 µM (inactive) | 4.09 µM (inactive) | 43.3 µM (inactive) | – | > 100 µM (inactive) | 32.9 µM (inactive) | 61 µM (inactive) | > 100 µM (inactive) | 25 µM (inactive) | –
9 | O=C(Cn1cc(-c2ccccc2)nn1)NC1CCCC1 | > 100 µM (inactive) | > 100 µM (inactive) | > 100 µM (inactive) | > 100 µM (inactive) | > 100 µM (inactive) | > 100 µM (inactive) | > 100 µM (inactive) | > 100 µM (inactive) | > 100 µM (inactive) | > 100 µM (inactive) | > 100 µM (inactive) | > 100 µM (inactive) | > 100 µM (inactive) | > 100 µM (inactive) | > 100 µM (inactive) | > 100 µM (inactive) | – | > 100 µM (inactive) | > 100 µM (inactive)
10 | CC(C)(SCc1ccccc1)C(N)C(=O)O (stereo unspecified) | > 100 µM (inactive) | > 100 µM (inactive) | > 100 µM (inactive) | > 100 µM (inactive) | > 100 µM (inactive) | > 100 µM (inactive) | > 100 µM (inactive) | > 100 µM (inactive) | > 100 µM (inactive) | > 100 µM (inactive) | > 100 µM (inactive) | – | > 100 µM (inactive) | > 100 µM (inactive) | > 100 µM (inactive) | > 100 µM (inactive) | – | > 100 µM (inactive) | > 100 µM (inactive)
11 | COc1cccc(NC(=O)CC(=O)N2N=C(C)C(/N=N/c3ccc(S(=O)(=O)CCOS(=O)(=O)O)cc3)C2=O)c1 (stereo unspecified) | 3.85 µM (inactive) | 2.99 µM (inactive) | 18.9 µM (inactive) | 5.05 µM (inactive) | 17 µM (inactive) | 1.58 µM (inactive) | 2.65 µM (inactive) | 4.86 µM (inactive) | 4.89 µM (inactive) | 4.09 µM (inactive) | 2.62 µM (inactive) | 7.1 µM (inactive) | 5.75 µM (inactive) | 13 µM (inactive) | 1.5 µM (inactive) | 17.7 µM (inactive) | – | 2.26 µM (inactive) | 0.796 µM (active)
12 | O=C(O)c1ccc(Nc2nc3ccccc3nc2C(=O)O)cc1 | – | – | > 100 µM (inactive) | > 100 µM (inactive) | > 100 µM (inactive) | > 100 µM (inactive) | > 100 µM (inactive) | > 100 µM (inactive) | > 100 µM (inactive) | > 100 µM (inactive) | > 100 µM (inactive) | > 100 µM (inactive) | > 100 µM (inactive) | > 100 µM (inactive) | – | > 100 µM (inactive) | > 100 µM (inactive) | > 100 µM (inactive) | > 100 µM (inactive)
13 | [N-]=[N+]=NC1=C(c2ccccc2)C(=O)c2cccc3cccc1c23 | 8.26 µM (inactive) | 29.9 µM (inactive) | 11.9 µM (inactive) | 29.9 µM (inactive) | 38.9 µM (inactive) | 46.7 µM (inactive) | 68.4 µM (inactive) | 15 µM (inactive) | > 100 µM (inactive) | 33.3 µM (inactive) | 4.85 µM (inactive) | > 100 µM (inactive) | 23.2 µM (inactive) | 15.2 µM (inactive) | 14.4 µM (inactive) | – | 25.8 µM (inactive) | 2.55 µM (inactive) | –
14 | C=CC1(C)/C(=N\O)C(C)(CC)C(=O)N1O (stereo unspecified) | – | > 100 µM (inactive) | > 100 µM (inactive) | > 100 µM (inactive) | > 100 µM (inactive) | > 100 µM (inactive) | – | > 100 µM (inactive) | > 100 µM (inactive) | > 100 µM (inactive) | > 100 µM (inactive) | > 100 µM (inactive) | > 100 µM (inactive) | > 100 µM (inactive) | > 100 µM (inactive) | > 100 µM (inactive) | > 100 µM (inactive) | > 100 µM (inactive) | > 100 µM (inactive)
15 | COC(=O)C(Cc1c[nH]c2ccccc12)NC(=O)C(Cc1c[nH]c2ccccc12)NC(=O)C(Cc1c[nH]c2ccccc12)NC(=O)OC(C)(C)C (stereo not drawn) (Boc-Trp-Trp-Trp-OMe; configuration not given here) | 15.9 µM (inactive) | 21.5 µM (inactive) | 39.2 µM (inactive) | 18.9 µM (inactive) | 18.9 µM (inactive) | – | – | 18.7 µM (inactive) | 18.5 µM (inactive) | 17.7 µM (inactive) | – | 20.4 µM (inactive) | 25.5 µM (inactive) | 17.9 µM (inactive) | – | 57 µM (inactive) | – | 17.3 µM (inactive) | –
16 | COC(=O)[C@H](Cc1ccc(O)c(Br)c1)NC(=O)[C@H](Cc1ccc(O)cc1)NC(=O)OC(C)(C)C (Boc-Tyr-[Tyr(3-Br)]-OMe) | > 100 µM (inactive) | 42.6 µM (inactive) | > 100 µM (inactive) | 78.5 µM (inactive) | > 100 µM (inactive) | 29.8 µM (inactive) | 23 µM (inactive) | 37 µM (inactive) | – | 34.6 µM (inactive) | 23.8 µM (inactive) | 39.9 µM (inactive) | > 100 µM (inactive) | > 100 µM (inactive) | 22.5 µM (inactive) | > 100 µM (inactive) | > 100 µM (inactive) | 48.2 µM (inactive) | –

Reference: ChEMBL document CHEMBL1201862, “PubChem BioAssay data set” (2004)
